Results published in US20230085307A1, “PYRIDAZINONE COMPOUND AND HERBICIDE” (NISSAN CHEMICAL CORPORATION, priority 2019, published 2023).

How the values were obtained:
oval-leafed pondweed [1] = assay: Test Example 1: herbicidal activity, application before weed generation under submerged conditions (Table 16, symbol C); assay type: in vivo, oval-leafed pondweed (Monochoria vaginalis); details: 320 g/ha applied herbicide
Procedure, shortened: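 Submerged Wagner pots (alluvial soil, 4 cm water) sown with weed seeds and planted with 2.5-leaf rice seedlings; emulsifiable concentrate diluted in water applied to water surface on sowing day. Held in greenhouse at 25-30 °C; injury scored 0-5 by herbicidal rate after three weeks.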

late watergrass = assay: Test Example 2: herbicidal activity, application during weed generation under submerged conditions (Table 17, symbol A); assay type: in vivo, late watergrass (Echinochloa oryzicola); details: AAH 320 g/ha; application during weed generation, submerged conditions
Procedure, shortened: (§1)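 Wagner pot, alluvial soil, 4 cm flood; mixed sowing of all species; greenhouse 25° C.–30° C. Emulsifiable formulation, water-diluted to predetermined dose, applied to paddy water at 1–2 leaf stage. Effect rated at 3 wk using the earlier test's scoring criteria.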

oval-leafed pondweed [2] = assay: Test Example 2: herbicidal activity, application during weed generation under submerged conditions (Table 17, symbol C); assay type: in vivo, oval-leafed pondweed (Monochoria vaginalis); details: AAH 320 g/ha; application during weed generation, submerged conditions
Procedure, shortened: as §1

rice flat sedge = assay: Test Example 3: herbicidal effect by foliage application, Wagner pot (Table 18, symbol E); assay type: in vivo, rice flat sedge (Cyperus iria); details: amount of applied herbicide 320 g/ha
Procedure, shortened: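 Plants were sown in alluvial soil held under 0.1–0.5 cm standing water and grown 14 days in a greenhouse at 25–30 °C. An emulsifiable formulation, water-diluted to the set dose, was then sprayed onto the foliage, and effects were scored three weeks later using previously defined criteria.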

green foxtail [3] = assay: Test Example 4: herbicidal effect by soil treatment (Table 19, symbol G); assay type: in vivo, green foxtail (Setaria viridis); details: amount of applied herbicide 320 g/ha
Procedure, shortened: (§2)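 Pre-emergence style soil spray: seeds under ~1.5 cm sterilized diluvial soil received a uniform coat of emulsion diluted to the predetermined herbicide amount. Greenhouse 25–30° C; readout at week three on previously defined criteria.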

wild oat [4] = assay: Test Example 4: herbicidal effect by soil treatment (Table 19, symbol I); assay type: in vivo, wild oat (Avena fatua); details: amount of applied herbicide 320 g/ha
Procedure, shortened: as §2

blackgrass = assay: Test Example 4: herbicidal effect by soil treatment (Table 19, symbol J); assay type: in vivo, blackgrass (Alopecurus myosuroides); details: amount of applied herbicide 320 g/ha
Procedure, shortened: as §2

Italian ryegrass [5] = assay: Test Example 4: herbicidal effect by soil treatment (Table 19, symbol K); assay type: in vivo, Italian ryegrass (Lolium multiflorum); details: amount of applied herbicide 320 g/ha
Procedure, shortened: as §2

velvetleaf [6] = assay: Test Example 4: herbicidal effect by soil treatment (Table 19, symbol M); assay type: in vivo, velvetleaf (Abutilon theophrasti); details: amount of applied herbicide 320 g/ha
Procedure, shortened: as §2

redroot pigweed = assay: Test Example 4: herbicidal effect by soil treatment (Table 19, symbol N); assay type: in vivo, redroot pigweed (Amaranthus retroflexus); details: amount of applied herbicide 320 g/ha
Procedure, shortened: as §2

chickweed = assay: Test Example 4: herbicidal effect by soil treatment (Table 19, symbol P); assay type: in vivo, common chickweed (Stellaria media); details: amount of applied herbicide 320 g/ha
Procedure, shortened: as §2

southern crabgrass = assay: Test Example 5: herbicidal effect by foliage application, plastic box (Table 20, symbol F); assay type: in vivo, southern crabgrass (Digitaria ciliaris); details: foliage application, evaluated three weeks after application; for F: southern crabgrass, herbicidal effect (criteria 0-5): AAH 320 g/ha
Procedure, shortened: (§3)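 Plants were sown into sterilized diluvial soil under about 1.5 cm cover and kept in a greenhouse at 25° C. to 30° C. Fourteen days on, foliage received an even spray of the diluted emulsion. Herbicidal or crop effect was judged three weeks afterwards.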

green foxtail [7] = assay: Test Example 5: herbicidal effect by foliage application, plastic box (Table 20, symbol G); assay type: in vivo, green foxtail (Setaria viridis); details: foliage application, evaluated three weeks after application; for G: green foxtail, herbicidal effect (criteria 0-5): AAH 320 g/ha
Procedure, shortened: as §3

wild oat [8] = assay: Test Example 5: herbicidal effect by foliage application, plastic box (Table 20, symbol I); assay type: in vivo, wild oat (Avena fatua); details: foliage application, evaluated three weeks after application; for I: wild oat, herbicidal effect (criteria 0-5): AAH 320 g/ha
Procedure, shortened: as §3

Italian ryegrass [9] = assay: Test Example 5: herbicidal effect by foliage application, plastic box (Table 20, symbol K); assay type: in vivo, Italian ryegrass (Lolium multiflorum); details: foliage application, evaluated three weeks after application; for K: Italian ryegrass, herbicidal effect (criteria 0-5): AAH 320 g/ha
Procedure, shortened: as §3

velvetleaf [10] = assay: Test Example 5: herbicidal effect by foliage application, plastic box (Table 20, symbol M); assay type: in vivo, velvetleaf (Abutilon theophrasti); details: foliage application, evaluated three weeks after application; for M: velvetleaf, herbicidal effect (criteria 0-5): AAH 320 g/ha
Procedure, shortened: as §3

persian speedwell = assay: Test Example 5: herbicidal effect by foliage application, plastic box (Table 20, symbol R); assay type: in vivo, Persian speedwell (Veronica persica); details: foliage application, evaluated three weeks after application; for R: persian speedwell, herbicidal effect (criteria 0-5): AAH 320 g/ha
Procedure, shortened: as §3

| SMILES | Herbicidal effect on C: oval-leafed pondweed (grade 0-5) (oval-leafed pondweed [1]) | herbicidal effect rating, A: late watergrass (late watergrass) | herbicidal effect rating, C: oval-leafed pondweed (oval-leafed pondweed [2]) | herbicidal effect on E: rice flat sedge (rice flat sedge) | herbicidal effect on G: green foxtail (green foxtail [3]) | herbicidal effect on I: wild oat (wild oat [4]) | herbicidal effect on J: blackgrass (blackgrass) | herbicidal effect on K: Italian ryegrass (Italian ryegrass [5]) | herbicidal effect on M: velvetleaf (velvetleaf [6]) | herbicidal effect on N: redroot pigweed (redroot pigweed) | herbicidal effect on P: chickweed (chickweed) | F: southern crabgrass, herbicidal effect (criteria 0-5) (southern crabgrass) | G: green foxtail, herbicidal effect (criteria 0-5) (green foxtail [7]) | I: wild oat, herbicidal effect (criteria 0-5) (wild oat [8]) | K: Italian ryegrass, herbicidal effect (criteria 0-5) (Italian ryegrass [9]) | M: velvetleaf, herbicidal effect (criteria 0-5) (velvetleaf [10]) | R: persian speedwell, herbicidal effect (criteria 0-5) (persian speedwell) | also measured |
| --- | --- | --- | --- | --- | --- | --- | --- | --- | --- | --- | --- | --- | --- | --- | --- | --- | --- | --- |
| CCCC(=O)Oc1c(C)nn(C)c(=O)c1-c1c(-c2ccc(SCC)cc2)sc2ccc(F)cc12 [2-245] | 3 (Herbicidal rate of 40% or more and less than 70%) | 5 (Herbicidal rate of 90% or more (almost completely withered)) | 4 (Herbicidal rate of 70% or more and less than 90%) | 4 (Herbicidal rate of 70% or more and less than 90%) | 5 (Herbicidal rate of 90% or more (almost completely withered)) | 2 (Herbicidal rate of 20% or more and less than 40%) | 3 (Herbicidal rate of 40% or more and less than 70%) | 4 (Herbicidal rate of 70% or more and less than 90%) | 2 (Herbicidal rate of 20% or more and less than 40%) | 5 (Herbicidal rate of 90% or more (almost completely withered)) | 4 (Herbicidal rate of 70% or more and less than 90%) |  |  |  |  |  |  | herbicidal effect on F: southern crabgrass (criteria 0-5) (southern crabgrass; 320 g/ha): 5 (Herbicidal rate of 90% or more (almost completely withered)); herbicidal effect on G: green foxtail (criteria 0-5) (green foxtail [7]; 320 g/ha): 5 (Herbicidal rate of 90% or more (almost completely withered)); herbicidal effect on I: wild oat (criteria 0-5) (wild oat [8]; 320 g/ha): 5 (Herbicidal rate of 90% or more (almost completely withered)); herbicidal effect on K: Italian ryegrass (criteria 0-5) (Italian ryegrass [9]; 320 g/ha): 5 (Herbicidal rate of 90% or more (almost completely withered)); herbicidal effect on M: velvetleaf (criteria 0-5) (velvetleaf [10]; 320 g/ha): 5 (Herbicidal rate of 90% or more (almost completely withered)); herbicidal effect on R: persian speedwell (criteria 0-5) (persian speedwell; 320 g/ha): 5 (Herbicidal rate of 90% or more (almost completely withered)) |
| Cc1nn(C)c(=O)c(-c2c(-c3ccc(SC4CC4)cc3)sc3ccc(F)cc23)c1O [2-254] | 1 (Herbicidal rate of 5% or more and less than 20%) | 4 (Herbicidal rate of 70% or more and less than 90%) | 0 (Herbicidal rate of 5% or less (almost no effect)) | 5 (Herbicidal rate of 90% or more (almost completely withered)) | 5 (Herbicidal rate of 90% or more (almost completely withered)) | 1 (Herbicidal rate of 5% or more and less than 20%) | 4 (Herbicidal rate of 70% or more and less than 90%) | 5 (Herbicidal rate of 90% or more (almost completely withered)) | 2 (Herbicidal rate of 20% or more and less than 40%) | 5 (Herbicidal rate of 90% or more (almost completely withered)) | 4 (Herbicidal rate of 70% or more and less than 90%) | 5 (Herbicidal rate of 90% or more (almost completely withered)) | 5 (Herbicidal rate of 90% or more (almost completely withered)) | 5 (Herbicidal rate of 90% or more (almost completely withered)) | 5 (Herbicidal rate of 90% or more (almost completely withered)) | 5 (Herbicidal rate of 90% or more (almost completely withered)) | 5 (Herbicidal rate of 90% or more (almost completely withered)) |  |
| Cc1nn(C)c(=O)c(-c2c(-c3ccc([S+]([O-])C(C)C)cc3)sc3ccc(F)cc23)c1O (centres unmarked) [2-257] | 2 (Herbicidal rate of 20% or more and less than 40%) | 2 (Herbicidal rate of 20% or more and less than 40%) | 0 (Herbicidal rate of 5% or less (almost no effect)) | 5 (Herbicidal rate of 90% or more (almost completely withered)) | 2 (Herbicidal rate of 20% or more and less than 40%) | 0 (Herbicidal rate of 5% or less (almost no effect)) | 1 (Herbicidal rate of 5% or more and less than 20%) | 3 (Herbicidal rate of 40% or more and less than 70%) | 3 (Herbicidal rate of 40% or more and less than 70%) | 5 (Herbicidal rate of 90% or more (almost completely withered)) | 4 (Herbicidal rate of 70% or more and less than 90%) | 3 (Herbicidal rate of 40% or more and less than 70%) | 4 (Herbicidal rate of 70% or more and less than 90%) | 5 (Herbicidal rate of 90% or more (almost completely withered)) | 5 (Herbicidal rate of 90% or more (almost completely withered)) | 5 (Herbicidal rate of 90% or more (almost completely withered)) | 5 (Herbicidal rate of 90% or more (almost completely withered)) |  |
| Cc1nn(C)c(=O)c(-c2c(-c3ccc(S(C)(=O)=O)cc3)sc3ccc(F)cc23)c1O [2-258] | 0 (Herbicidal rate of 5% or less (almost no effect)) | 4 (Herbicidal rate of 70% or more and less than 90%) | 3 (Herbicidal rate of 40% or more and less than 70%) | 5 (Herbicidal rate of 90% or more (almost completely withered)) | 5 (Herbicidal rate of 90% or more (almost completely withered)) | 3 (Herbicidal rate of 40% or more and less than 70%) | 5 (Herbicidal rate of 90% or more (almost completely withered)) | 5 (Herbicidal rate of 90% or more (almost completely withered)) | 3 (Herbicidal rate of 40% or more and less than 70%) | 4 (Herbicidal rate of 70% or more and less than 90%) | 4 (Herbicidal rate of 70% or more and less than 90%) | 5 (Herbicidal rate of 90% or more (almost completely withered)) | 5 (Herbicidal rate of 90% or more (almost completely withered)) | 5 (Herbicidal rate of 90% or more (almost completely withered)) | 5 (Herbicidal rate of 90% or more (almost completely withered)) | 5 (Herbicidal rate of 90% or more (almost completely withered)) | 5 (Herbicidal rate of 90% or more (almost completely withered)) |  |
